Measured values: patent US12350272B2, “Pyridopyrimidinone derivatives for use as AXL inhibitors” (OSCOTEC INC., priority 2018, dated 2025)
Structures can show the parent of a compound that is named as a salt. Where two headings read alike, the source gives them in different places.

Experiments:
JAK2 = JAK2 (Homo sapiens (Human), UniProt O60674); assay: Biochemical inhibition of JAK2; conditions: Table 2, range of IC50 value
MDA-MB-231 cells = assay: Cell viability assay (ATPLite), MDA-MB-231; type: cell-based, human; conditions: for GI50: 72 hour incubation
Text: (§1) Axl is a member of the TAM (TYRO3-Axl-MER) family of receptor tyrosine kinases, which, when activated, can increase tumor cell survival, proliferation, migration and invasion, angiogenesis, and tumor-host interactions. Upon GAS6 binding to Axl, Axl subsequently activates the signaling pathways downstream such as phosphoinositide 3-kinase (PI3K), RAt sarcoma (RAS), and extracellular signal regulated kinase (ERK).
(§2) This cell line was maintained with an Roswell Park Memorial Institute (RPMI) medium (HYCLONE™) containing 10% bovine calf serum (BCS; HYCLONE™) supplemented iron. The cells were seeded at 2×10^4 cells in 96-well culture plates, and serially diluted compounds were then added. After a 72 hour incubation period at 37° C., cell viability was measured using the ATPLite 1 step assay (PERKIN-ELMER™) that is based on the quantification of ATP from viable cells.

Hs578T cells = assay: Cell viability assay (ATPLite), Hs578T; type: cell-based, human; conditions: 72 hour incubation
Text: as §1, §2

[1] = system: mouse 4T1 breast cancer cells; assay: 4T1 spontaneous (orthotopic) metastasis model, combination with anti-PD-1 antibody; type: in vivo, BALB/c female mice
Text: A day before cell inoculation, fur on the right flank of BALB/C mice was depilated using hair trimmer. On the following day, the skin area around the injection site was disinfected by mildly swabbing with surgical spirit. To establish allografts, BALB/c female mice (7-weeks age) were implanted orthotopically into the mammary gland with 5×10^6 syngeneic 4T1 cells. Mice were sacrificed when average tumor volume reached 1500 mm^3.
Mice were randomized based on tumor volume (˜50 mm^3) and five mice were allocated per group. Tumor grafts were measured after approximately 2 days of cell inoculation when they become palpable. […] After treatment for 28 days, all mice were sacrificed. 4T1 lung metastasis was determined by counting the tumor nodules through H&E staining. 4T1 solid tumor on primary site was measured by a tumor 3D scanner, TM900 (Peria, Belgium). […] The metastatic nodule was measured by microscopic observation.
BALB/c female mice (7-weeks age) were implanted orthotopically into the mammary gland with 5×10^6 syngeneic 4T1 cells. […] Mice were sacrificed on day 28 and lung metastasis was evaluated by counting nodules.

[2] = system: mouse B16F10 melanoma cells; assay: B16F10 lung in vivo metastasis model; conditions: oral 30 mg/kg/day
Description: (§4) Compounds of Formula (I) as obtained above were tested in metastasis models using mouse B16F10 melanoma and CT26-Luciferase colon cancer cells. […] Cell line was harvested by trypsinization when they reached 70-80% confluence. A day before cell inoculation, C57BL/6 mice were maintained under pathogen-free conditions according to SPF guideline (room temperature, 40-60% humidity) and housed in the ABMRC at the Yonsei University.
(§5) Mice were randomized, and three mice for B16F10 model and five mice for CT26 peritoneal metastasis model were allocated per group. Lung metastasis was measured after 14 days of cell inoculation. […] Vehicle for oral administration consists of 10% sodium sulphobutylether β-cyclodextrine (SBECD) in 50 mM citrate buffer (pH 3.0). Animals were monitored for mortality and clinical signs (such as illness and behavioral changes) daily throughout the study. In B16F10 model, after mice sacrificed, organs were fixed with 10% of Formalin solution for 1 day. The FFPE block was sliced by 4 μm thinness on coating slides for applying the H&E staining. Then, tumor nodule counting was calculated. CT26 metastasis was determined by measuring luminescence intensity in peritoneal cavity.

[3] = system: CT26-Luciferase colon cancer cells; assay: CT26 peritoneal in vivo metastasis model; conditions: 30 mg/kg/day
Description: as §4, §5

Truncated human Axl = Truncated human Axl (Homo sapiens, UniProt P30530); assay: Kinase inhibition assay (inhibition of enzymatic Axl kinase activity); type: biochemical
Sequence of Truncated human Axl (P30530 26-894 limits assumed): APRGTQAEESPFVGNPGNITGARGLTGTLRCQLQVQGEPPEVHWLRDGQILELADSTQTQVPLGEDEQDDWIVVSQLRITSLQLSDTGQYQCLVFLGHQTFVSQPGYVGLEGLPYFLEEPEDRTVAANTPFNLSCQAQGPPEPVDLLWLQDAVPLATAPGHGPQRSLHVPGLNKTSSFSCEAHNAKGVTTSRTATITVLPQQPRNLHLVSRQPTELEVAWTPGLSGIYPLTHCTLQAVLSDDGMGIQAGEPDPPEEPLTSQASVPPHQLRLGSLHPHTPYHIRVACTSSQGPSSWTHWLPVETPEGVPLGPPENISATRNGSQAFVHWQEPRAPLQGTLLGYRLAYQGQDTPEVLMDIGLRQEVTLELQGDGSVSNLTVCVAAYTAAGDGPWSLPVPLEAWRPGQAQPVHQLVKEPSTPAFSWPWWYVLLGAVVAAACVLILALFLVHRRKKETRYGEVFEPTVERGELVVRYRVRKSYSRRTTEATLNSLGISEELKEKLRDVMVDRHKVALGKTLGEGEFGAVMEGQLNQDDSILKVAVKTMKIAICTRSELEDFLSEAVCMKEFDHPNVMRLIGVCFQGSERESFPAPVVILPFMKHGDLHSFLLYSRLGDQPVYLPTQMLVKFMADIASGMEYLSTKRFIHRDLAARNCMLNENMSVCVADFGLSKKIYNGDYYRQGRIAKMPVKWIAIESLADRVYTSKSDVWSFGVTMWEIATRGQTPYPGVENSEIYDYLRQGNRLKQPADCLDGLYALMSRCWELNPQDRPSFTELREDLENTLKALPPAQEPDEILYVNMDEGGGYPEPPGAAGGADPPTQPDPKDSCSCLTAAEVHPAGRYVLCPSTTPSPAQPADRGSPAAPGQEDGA
Description: Compounds of Formula (I) as obtained above were assayed to measure their capacity to inhibit Axl kinase. Axl belongs to the recently identified TYRO-3, Axl, MERTK (TAM) receptor tyrosine kinase (RTK) family. […] Upon GAS6 binding, Axl homodimerizes and subsequently induces several downstream signaling pathways involved in cell proliferation, migration, invasion, anti-apoptosis, angiogenesis, metastasis, and therapeutic resistance. Upregulation of Axl has been reported in a wide variety of cancer cell lines as well as in cancer specimens from patients with breast cancer, acute leukemia, colorectal cancer, lung cancer, melanoma, ovarian cancer, or prostate cancer, among others.
Compounds of Formula (I) as obtained above were initially diluted to […] in 100% DMSO (CALBIOCHEM™) for storage and made into kinase buffer solution to create a compound concentration ranging from 1 uM and 10 uM. Serial dilutions of the compounds were dispensed into a 96-well plate (GREINER BIOSCIENCES™) at 6 μL each. Truncated human Axl (CARNA BIOSCIENCES™) were diluted in kinase buffer and added to the compound solutions and pre-incubated for 30 minutes at room temperature. […] The reaction mixture was incubated for 1 hour. Following the incubation, the stop solution made with EDTA, water, and Lance detection buffer ([…]™) were added (12 μL each) to stop phosphorylation.

[4] = system: MDA-MB-231 breast cancer cell line; assay: Transwell migration assay; type: cell-based, human; conditions: even at 0.03 μM, compared to R428
Description: (§3) In order to test whether the compounds of Formula (I) show the effect on inhibition of metastasis, cell migratory and invasive behaviors analyzed using transwell and matrigel invasion assays in MDA-MB-231 breast cancer cell line. […] Cell migration was performed by the transwell assay (BD Biosciences, CA, USA). Briefly, 5×10^4 cells in serum-free RPMI-1640 were seeded on a membrane (8.0-μm pore size) inserted in the wells of a 24-well plate. RPMI-1640 containing 10% FBS was added to the lower chamber of each well. After 24 h, cells in the upper chamber were removed by cotton swab and the cells that had reached the underside of the membrane were fixed and stained with crystal violet (1% in methyl alcohol) for 10 min. The cells located on the underside of the filter (5 fields/filter) were counted. The cell invasion assay was carried out similarly, except that the matrigel (BD Biosciences, CA, USA) was added to each well 6 h before cells were seeded on the membrane. After 48 h, matrigel and any remaining cells in the upper chamber were removed by cotton swabs. Cells on the lower surface of the membrane were fixed and stained as described above. Data are representative of results from three independent fields of stained membrane.

[5] = system: MDA-MB-231 breast cancer cell line; assay: Matrigel invasion assay; type: cell-based, human; conditions: even at 0.03 μM, compared to R428
Description: as §3

[6] = system: mouse breast 4T1 cancer cells; assay: Anti-tumor activity in breast 4T1 syngeneic in vivo cancer model; conditions: BALB/C mice
Description: A day before cell inoculation, fur on the right flank of BALB/C mice was depilated using hair trimmer. On the following day, the skin area around the injection site was disinfected by mildly swabbing with surgical spirit. To establish allografts, cells were suspended in serum-free media and mixed 1:1 with matrigel to obtain 1×10^6 cells/100 μL. […] Mice were randomized based on tumor volume and six mice were allocated per group. Tumor grafts were measured after approximately 5 days of cell inoculation when they become palpable. […] Tumor growth inhibition (TGI) was calculated as follows: % TGI=[1−(Treatment TVFinal−Treatment TVinitial)/(Control TVFinal−Control TVInitial)]*100

4T1 = assay: Anti-tumor activity in immunodeficient mice; type: in vivo; conditions: 30 mg/kg/day
[7] = Table 2, range of IC50 value, read-out: Axl
[8] = day 15, oral QD 30 mg/kg/day for 14 days

Sequence of JAK2 (O60674 whole entry, species assumed): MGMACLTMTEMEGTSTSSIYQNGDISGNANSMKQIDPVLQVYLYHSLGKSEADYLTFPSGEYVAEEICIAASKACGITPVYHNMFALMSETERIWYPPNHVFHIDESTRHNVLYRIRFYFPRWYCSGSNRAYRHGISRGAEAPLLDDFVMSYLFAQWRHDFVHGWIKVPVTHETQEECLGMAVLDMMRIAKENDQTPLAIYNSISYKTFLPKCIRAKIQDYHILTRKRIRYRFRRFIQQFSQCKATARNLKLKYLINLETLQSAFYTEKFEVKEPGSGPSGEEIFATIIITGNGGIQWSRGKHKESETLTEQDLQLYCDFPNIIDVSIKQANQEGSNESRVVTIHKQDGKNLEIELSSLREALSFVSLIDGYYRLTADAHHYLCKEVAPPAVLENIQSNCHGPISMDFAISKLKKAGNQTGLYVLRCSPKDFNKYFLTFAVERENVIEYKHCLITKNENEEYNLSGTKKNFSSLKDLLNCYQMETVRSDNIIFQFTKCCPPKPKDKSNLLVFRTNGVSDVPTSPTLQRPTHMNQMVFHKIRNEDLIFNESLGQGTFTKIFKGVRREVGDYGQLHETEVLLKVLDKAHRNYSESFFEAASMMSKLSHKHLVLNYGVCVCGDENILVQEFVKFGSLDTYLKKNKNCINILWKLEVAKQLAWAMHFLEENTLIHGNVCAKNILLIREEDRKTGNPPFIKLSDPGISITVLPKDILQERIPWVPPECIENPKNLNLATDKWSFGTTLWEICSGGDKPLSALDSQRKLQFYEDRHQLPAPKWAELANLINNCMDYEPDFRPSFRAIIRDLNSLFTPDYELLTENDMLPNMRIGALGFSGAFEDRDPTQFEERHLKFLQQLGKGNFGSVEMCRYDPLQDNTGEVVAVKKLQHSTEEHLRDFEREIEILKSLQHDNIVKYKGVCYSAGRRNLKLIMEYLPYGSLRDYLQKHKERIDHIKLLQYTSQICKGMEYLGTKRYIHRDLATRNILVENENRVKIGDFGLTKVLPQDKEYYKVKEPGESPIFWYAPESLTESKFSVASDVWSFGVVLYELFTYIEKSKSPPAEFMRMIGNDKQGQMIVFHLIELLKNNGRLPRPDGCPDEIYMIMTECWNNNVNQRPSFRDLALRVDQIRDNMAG

SMILES	IC50 (JAK2)	GI50 (MDA-MB-231 cells; Homo sapiens, MDA-MB-231, 72 h)	IC50 (Truncated human Axl; Table 1, read-out: Axl (IC50))	GI50 (Hs578T cells; Homo sapiens, Hs-578T, 72 h)	IC50 (Truncated human Axl; [7])	other results
CCc1nc(C(N)=O)c(Nc2ccc(N3CCC(N4CCN(C)CC4)CC3)c(OC)c2)nc1NC1CCOCC1 [ASP2215, gilteritinib, reference compound]	0.011 to 0.1 µM	3.1 to 10 µM		3.1 to 10 µM		
CN1CCC(Nc2nc(Nc3ccc(Oc4ccccc4)cc3)c3c(=O)[nH]cc(Br)c3n2)CC1.Cl [Compound 226, 8-bromo-2-((1-methylpiperidin-4-yl)amino)-4-((4-phenoxyphenyl)amino)pyrido[4,3-d]pyrimidin-5(6H)-one hydrochloride]	0.101 to 1 µM					total metastatic burden and number of larger metastases (medium+large, ≥5 mm diameter) ([1]; 30 mg/kg/day, 4 weeks): significantly suppressed; tumor growth on primary site (mammary fat pad) ([1]; 4 weeks treatment, no different efficacy between groups): inhibition of tumor growth; metastasis into the lung (tumor nodules) ([1]; day 28, compound 226 30 mg/kg/day and/or anti-PD-1 antibody twice/week for 4 weeks): significantly decreased; tolerability (clinical signs) ([2]; B16F10 lung and CT-26 peritoneal metastasis models): well tolerated; lung metastasis in gross lung specimens ([2]; B16F10 model): dramatically inhibited lung metastasis; tumor nodules ([2]; B16F10 model): no tumor nodules; luminescence intensity in the peritoneal cavity ([3]; CT-26 peritoneal metastasis model): drastically reduced; survival of mice ([3]; QD, vehicle mice started to die from day 9): alive during the treatment period
CN1CCC(Nc2nc(Nc3ccc(Oc4cccc(F)c4)cc3)c3c(=O)[nH]cc(Br)c3n2)CC1.Cl [Compound 238, 8-bromo-4-((4-(3-fluorophenoxy)phenyl)amino)-2-((1-methylpiperidin-4-yl)amino)pyrido[4,3-d]pyrimidin-5(6H)-one hydrochloride]	0.101 to 1 µM		0.011 to 0.1 µM		0.011 to 0.1 µM	inhibition of kinase activity of Axl (Truncated human Axl; result in words): strong inhibition; GI50 (MDA-MB-231 cells; hydrochloride): 1.1 to 3 µM; GI50 (Hs578T cells; hydrochloride): 1.1 to 3 µM; migration of MDA-MB-231 cells [4]: significantly inhibited; invasion of MDA-MB-231 cells [5]: significantly inhibited; average tumor volume [6, 8]: 669±60 mm^3; tumor growth inhibition (TGI) [6, 8]: 59%; tolerability (clinical signs, body weight) ([6]; oral QD 30 mg/kg/day): well tolerated; anti-tumor effect (4T1): no anti-tumor effect
CN1CCC(Nc2nc(Nc3ccc(Oc4cccc(F)c4)cc3)c3c(=O)[nH]cc(Br)c3n2)CC1 [Compound 240, 8-bromo-4-((4-(3-fluorophenoxy)phenyl)amino)-2-((1-methylpiperidin-4-yl)amino)pyrido[4,3-d]pyrimidin-5(6H)-one]	0.101 to 1 µM		0.011 to 0.1 µM		0.011 to 0.1 µM	GI50 (MDA-MB-231 cells): 3.1 to 10 µM; GI50 (Hs578T cells): 3.1 to 10 µM
CN1CCC(Nc2nc(Nc3ccc(Oc4ccc(F)c(F)c4)cc3)c3c(=O)[nH]cc(Br)c3n2)CC1 [Compound 241, 8-bromo-4-((4-(3,4-difluorophenoxy)phenyl)amino)-2-((1-methylpiperidin-4-yl)amino)pyrido[4,3-d]pyrimidin-5(6H)-one hydrochloride]	1 to 10 µM	3.1 to 10 µM	0.011 to 0.1 µM	3.1 to 10 µM	0.011 to 0.1 µM	
Nc1nc(Nc2ccc3c(c2)CC[C@@H](N2CCCC2)CC3)nn1-c1cc2c(nn1)-c1ccccc1CCC2 [Compound R428, reference compound]	0.101 to 1 µM	11 to 30 µM		3.1 to 10 µM		

The next lines start with results.

IC50 (JAK2)	GI50 (MDA-MB-231 cells; Homo sapiens, MDA-MB-231, 72 h)	IC50 (Truncated human Axl; Table 1, read-out: Axl (IC50))	SMILES	GI50 (Hs578T cells; Homo sapiens, Hs-578T, 72 h)	IC50 (Truncated human Axl; [7])	other results
0.101 to 1 µM		0.101 to 1 µM	CN1CCC(Nc2nc(Nc3ccc(OC4CCCCC4)cc3)c3c(=O)[nH]cc(Br)c3n2)CC1 [Compound 233, 8-bromo-4-((4-(cyclohexyloxy)phenyl)amino)-2-((1-methylpiperidin-4-yl)amino)pyrido[4,3-d]pyrimidin-5(6H)-one hydrochloride]		0.101 to 1 µM	GI50 (MDA-MB-231 cells; hydrochloride): 3.1 to 10 µM; GI50 (Hs578T cells; hydrochloride): 1.1 to 3 µM
	1.1 to 3 µM	0.101 to 1 µM	CN1CCC(Nc2nc(Nc3ccc(OCC4CCCC4)cc3)c3c(=O)[nH]cc(Br)c3n2)CC1 [Compound 235, 8-bromo-4-((4-(cyclopentylmethoxy)phenyl)amino)-2-((1-methylpiperidin-4-yl)amino)pyrido[4,3-d]pyrimidin-5(6H)-one hydrochloride]	1.1 to 3 µM		
	1.1 to 3 µM	0.101 to 1 µM	CN1CCC(Nc2nc(Nc3ccc(OC4CCCC4)cc3)c3c(=O)[nH]cc(Br)c3n2)CC1.Cl [Compound 237, 8-bromo-4-((4-(cyclopentyloxy)phenyl)amino)-2-((1-methylpiperidin-4-yl)amino)pyrido[4,3-d]pyrimidin-5(6H)-one hydrochloride]	0.1 to 1 µM		inhibition level in Axl-harboring breast cancer cell lines (MDA-MB-231 cells; compared with references ASP2215 and R428, MDA-MB-231 and Hs578T): greater than those exhibited by reference ASP2215 and R428
